Assay results reported in patent US7425410B2, “Methods for diagnosing a bipolar disorder and unipolar disorder” (Free State Diagnostics, LLC, priority 2003, dated 2008).

Tests used:
lymphoblasts [1] = test: Rate of drop in membrane potential (repolarization rate) in lymphoblasts; type: cell-based, human
Description: As the Na^+K^+ ATPase density on the cell surface increases, the intracellular sodium concentration decreases and the membrane potential begins to drop as a result of repolarization of the cell membrane. The rate of drop in membrane potential (repolarization rate) in affected cells incubated for 30 minutes in both K^+-free buffer and in K^+-containing (regular) buffer in the presence or absence of 30 μM ethacrynate was compared to that of unaffected cells incubated for 30 minutes in both K^+-free buffer and in K^+-containing buffer in the presence or absence of 30 μM ethacrynate. The difference in the median values between the two groups was greater than would be expected by chance.
The rate of drop in membrane potential after incubation with the protein kinase C (PKC) activator, phorbol 12-myristate 13-acetate (PMA), was compared in affected cells to that of unaffected cells. The membrane potential of these cells was determined by measuring the fluorescence intensity as described above. The rate of drop in membrane potential (repolarization rate) in affected cells was compared to that in unaffected cells in K^+-free buffer in the presence or absence of 2 μM PMA. The difference in the median values between the two groups was greater than would be expected by chance.
The rate of drop in membrane potential (repolarization rate) in affected cells incubated for 30 minutes in both K^+-free buffer and in K^+-containing (regular) buffer in the presence or absence of 2 μM PMA was compared to that of unaffected cells incubated for 30 minutes in both K^+-free buffer and in K^+-containing buffer in the presence or absence of 2 μM PMA. The difference in the median values between the two groups was greater than would be expected by chance.

whole blood cells [2] = test: Open clinical trial: fluorescence intensity ratio of whole blood cells; type: cell-based, human
Description: A pilot clinical trial was conducted using blood samples from 12 clinically affected bipolar patients and 11 unaffected controls. The medical histories of the patients were known to the investigator measuring the membrane potentials; therefore, the trials described in this example were open trials. The patients ranged from 19 years to 77 years in age, and included males and females from different ethnic groups. Similarly, the controls ranged from 25 to 67 including males and females from different ethnic groups. The patients were all hospitalized following a confirmed manic episode. During the drawing of samples, all patients were on mood stabilizers, either lithium or valproate.
Because the volume of blood required to collect enough lymphocytes was beyond that permitted by the current protocol, the membrane potential of whole blood cells was determined. The volume of whole blood required was approximately 1 ml. The blood samples were kept on ice until they were stored at 4° C. All of the samples were tested within 48 hours.
Whole blood samples drawn from patients and controls were suspended in K^+-containing buffer without ethacrynate and in K^+-free buffer with 30 μM ethacrynate or with 100 mM sorbitol. The fluorescent dye DiOC6(3) was added to both suspensions and incubated for 30 minutes. The cell suspensions loaded with the dye were centrifuged, drained and resuspended in the respective buffers. The fluorescence intensity was measured for 10 seconds and the ratio of the intensity in K^+-free buffer to the intensity in K^+-containing buffer was calculated.

whole blood cells [3] = test: Blind clinical trial and individual patient diagnosis: fluorescence intensity ratio of whole blood cells; type: cell-based, human; details: 30 μM ethacrynate
Description: A clinical trial was conducted using blood samples from the following four groups: schizophrenic, bipolar, and unipolar patients, as well as controls. The medical histories of these patients were unknown to the investigator measuring the membrane potentials; therefore, the trials described in this example were blind trials. The sample size was determined to be 5 with a power of 0.9, an alpha of 0.05, a difference in mean of 0.08, and a standard deviation of 0.03. However, more than 10 samples for each category were tested for a total sample size of 59. If a patient matched a diagnosis, structured clinical interviews according to DSM-IV guidelines were performed.
Whole blood samples drawn from patients and controls were suspended both in K^+-containing buffer and in K^+-free buffer with 30 μM ethacrynate or with 100 μM sorbitol. The fluorescent dye DiOC6(3) was added to both suspensions and incubated for 30 minutes. The cell suspensions loaded with the dye were centrifuged, drained and resuspended in the respective buffers. The fluorescence intensity was measured for 10 seconds and the ratio of the intensity in K^+-free buffer to the intensity in K^+-containing buffer was calculated.
An individual patient's cell sample was tested as described herein and six to twelve ratios were calculated. These values were treated as a group and compared with a normal control group (negative control) and a bipolar group (positive control).

lymphoblasts [4] = test: Membrane potential of lymphoblasts by DiOC6(3) fluorescence intensity ratio; type: cell-based, human
Description: Three groups of immortalized lymphoblast samples were obtained from the Human Genetic Mutant Cell Repository (Coriell Institute for Medical Research, Camden N.J.). The samples are shown in Table 4 below and included six from affected (bipolar I disorder) patients (A1 through A6), six from their siblings (S1 through S6), and six from unrelated normal control subjects matched by age and sex (N1 through N6).
The cells were grown at 37° C. in RPMI 1640 culture medium (GIBCO, Life Technologies, Gaithersburg, Md., USA) with 15% fetal bovine serum and 1% penicillin.
The membrane potentials of the bipolar I cells shown in Table 4 above (as well as in all other experiments, except where indicated) were measured using the following protocol. The cells cultured in the media described above were centrifuged at 210 g for 5 minutes at room temperature, then suspended in 3 ml of K^+-containing stock buffer (5 mM KCl, 4 mM NaHCO3, 5 mM HEPES, 134 mM NaCl, 2.3 mM CaCl2, and 5 mM glucose). The cells were counted and the desired number of cells were again suspended in the K^+-containing buffer. The membrane potentials were measured using 3,3′-dihexyloxacarbocyanine iodide DiOC6(3), a cell-permeant, voltage sensitive, green-fluorescent dye (Molecular Probes Inc. Eugene, Oreg. USA). The cells were preincubated for 30 minutes before measurements. The preincubated cell suspension was centrifuged at 210 g for 5 minutes and the cells were resuspended in the K^+-containing buffer without the dye in the buffer.
A fluorescence spectrometer (F2500 Hitachi, Japan) was used for the measurement of the membrane potential by measuring the fluorescence intensity of DiOC6(3), which is directly proportional to the membrane potential. The intensity of fluorescence was measured at an excitation wavelength of 488 nm and an output wavelength of 540 nm. The time of recordings varied from 10 seconds to 1500 seconds depending upon the experiment.
Membrane potential was expressed according to fluorescence intensity using the following equation: I=CV, wherein I is the fluorescence intensity of a lipophilic fluorescent dye DiOC6(3) being only one example of such a dye); V is the voltage or membrane potential; and C is a constant that can vary depending on a number of factors such as, but not limited to, temperature, lamp intensity, number of cells, concentration of the fluorescent dye, incubation time, and lipid composition of cells used. By using the ratio of the fluorescence intensity (I1) of one sample of cells to the fluorescence intensity (I2) of another sample of cells, the constant (C) could be canceled out
Membrane potentials were also measured in K^+-free buffer to enable comparison with membrane potentials in K^+-containing buffer. As used herein, K^+-free buffer contains all of the components of the K^+-containing buffer, except potassium (4 mM NaHCO3, 5 mM HEPES, 134 mM NaCl, 2.3 mM CaCl2, and 5 mM glucose). Constant volumes of samples of each cell line were added to an equal volume of buffer containing an equal volume of dye. […] Each variable was constant for each cell line in both buffers, so that the ratio of intensities was a true ratio-metric measurement.
The relative fluorescence intensity ratio of cells in K^+-free buffer was compared to that of cells in K^+-containing buffer with or without 30 μM ethacrynate. […] The membrane potential of these cells was determined by measuring the fluorescence intensity as described above. […]

[5] = antibiotic ionophore; cited from earlier work
[6] = Bipolars, 30 μM ethacrynate, whole blood
[7] = Controls, 30 μM ethacrynate, whole blood
[8] = blind trial, Bipolars, whole blood
[9] = blind trial, Controls, whole blood
[10] = blind trial, Schizophr., whole blood
[11] = blind trial, Unipolars, whole blood

**Q.** Which “relative ratio of repolarization rates in affected cells compared to unaffected cells” value (lymphoblasts [1]; 2 μM PMA, 30 min, K+-free and K+-containing buffer, P=0.046) does the source give for CCCCCCCCCCCCCC(=O)O[C@@H]1[C@@H](C)[C@@]2(O)[C@@H](C=C(CO)C[C@]3(O)C(=O)C(C)=C[C@@H]23)[C@@H]2C(C)(C)[C@]12OC(C)=O [PMA, phorbol 12-myristate 13-acetate] here?
**A.** significantly lower

**Q.** What about the “repolarization rate (with PMA/without PMA) in affected cells compared to unaffected cells” value (lymphoblasts [1]; K+-free buffer, 2 μM PMA, t-test P=0.029) of the same compound?
**A.** significantly different

**Q.** For C=C(CC)C(=O)c1ccc(OCC(=O)O)c(Cl)c1Cl [ethacrynate], which “mean fluorescence intensity ratio of bipolar samples compared to control samples” value (whole blood cells [2]; 30 μM ethacrynate, t-test) is on record?
**A.** significantly lower

**Q.** What about the “ratio of fluorescence intensity in K+-free buffer with ethacrynate to K+-containing buffer without ethacrynate, Mean” value (whole blood cells [2]; [6]) of the same compound?
**A.** 0.780

**Q.** What about the “ratio of fluorescence intensity in K+-free buffer with ethacrynate to K+-containing buffer without ethacrynate, Median” value (whole blood cells [2]; [6]) of the same compound?
**A.** 0.778

**Q.** What about the “ratio of fluorescence intensity in K+-free buffer with ethacrynate to K+-containing buffer without ethacrynate, Mean” value (whole blood cells [2]; [7]) of the same compound?
**A.** 0.893

**Q.** And the “ratio of fluorescence intensity in K+-free buffer with ethacrynate to K+-containing buffer without ethacrynate, Median” value (whole blood cells [2]; [7])?
**A.** 0.893

**Q.** And the “relative rate of repolarization in affected cells compared to unaffected cells” value (lymphoblasts [1]; 30 μM ethacrynate, 30 min, K+-free and K+-containing buffer, P=0.041)?
**A.** significantly higher

**Q.** What about the “ratio of fluorescence intensity in K+-free buffer with ethacrynate to K+-containing buffer without ethacrynate, Mean” value (whole blood cells [3]; Patient A) of the same compound?
**A.** 0.766

**Q.** And the “ratio of fluorescence intensity in K+-free buffer with ethacrynate to K+-containing buffer without ethacrynate, Median” value (whole blood cells [3]; Patient A)?
**A.** 0.763

**Q.** And the “fluorescence intensity ratio of bipolar samples compared to the other three groups” value (whole blood cells [3]; blind trial, ANOVA)?
**A.** significantly lower

**Q.** What about the “fluorescence intensity ratio of unipolar samples compared to the other three groups” value (whole blood cells [3]; blind trial, ANOVA) of the same compound?
**A.** significantly higher

**Q.** What about the “ratio of fluorescence intensity in K+-free buffer with ethacrynate to K+-containing buffer without ethacrynate, Mean” value (whole blood cells [3]; [8]) of the same compound?
**A.** 0.768

**Q.** And the “ratio of fluorescence intensity in K+-free buffer with ethacrynate to K+-containing buffer without ethacrynate, Median” value (whole blood cells [3]; [8])?
**A.** 0.773

**Q.** What about the “ratio of fluorescence intensity in K+-free buffer with ethacrynate to K+-containing buffer without ethacrynate, Mean” value (whole blood cells [3]; [9]) of the same compound?
**A.** 0.850

**Q.** What about the “ratio of fluorescence intensity in K+-free buffer with ethacrynate to K+-containing buffer without ethacrynate, Median” value (whole blood cells [3]; [9]) of the same compound?
**A.** 0.850

**Q.** And the “ratio of fluorescence intensity in K+-free buffer with ethacrynate to K+-containing buffer without ethacrynate, Mean” value (whole blood cells [3]; [10])?
**A.** 0.870

**Q.** And the “ratio of fluorescence intensity in K+-free buffer with ethacrynate to K+-containing buffer without ethacrynate, Median” value (whole blood cells [3]; [10])?
**A.** 0.863

**Q.** And the “ratio of fluorescence intensity in K+-free buffer with ethacrynate to K+-containing buffer without ethacrynate, Mean” value (whole blood cells [3]; [11])?
**A.** 0.898

**Q.** And the “ratio of fluorescence intensity in K+-free buffer with ethacrynate to K+-containing buffer without ethacrynate, Median” value (whole blood cells [3]; [11])?
**A.** 0.901

**Q.** What about the “relative intensity ratio of affected cells compared to unaffected cells” value (lymphoblasts [4]; 30 μM ethacrynate, 30 min, K+-free vs K+-containing buffer, t-test P=0.009) of the same compound?
**A.** significantly higher

**Q.** And the “intensity ratio (membrane potential with ethacrynate/without ethacrynate) of affected cells compared to unaffected cells” value (lymphoblasts [4]; K+-free buffer, 30 μM ethacrynate, t-test P=0.032)?
**A.** significantly higher

**Q.** And the “relative intensity ratio, mean (intensity ratio with/without ethacrynate in K+-free buffer divided by that in K+-containing buffer)” value (lymphoblasts [4]; affected (bipolar I) cells, 30 μM ethacrynate, 30 min)?
**A.** approximately 1.04

**Q.** What about the “relative intensity ratio, mean (intensity ratio with/without ethacrynate in K+-free buffer divided by that in K+-containing buffer)” value (lymphoblasts [4]; unaffected (sibling and normal) cells, 30 μM ethacrynate, 30 min) of the same compound?
**A.** approximately 0.79

**Q.** Which “preference for Na+ over K+” value [5] does the source give for CC[C@@]1([C@@H]2O[C@@H]([C@H]3O[C@@](O)(CO)[C@H](C)C[C@@H]3C)C[C@@H]2C)CC[C@H]([C@]2(C)CC[C@]3(C[C@H](O)[C@@H](C)[C@@H]([C@@H](C)[C@@H](OC)[C@H](C)C(=O)O)O3)O2)O1 [monensin] here?
**A.** 10 fold

**Q.** What about the “intensity ratio (membrane potential with monensin/without monensin) of affected cells compared to unaffected cells” value (lymphoblasts [4]; K+-free buffer, 10 μM monensin, 30 min, t-test P=0.009) of the same compound?
**A.** significantly lower

**Q.** For OC[C@@H](O)[C@@H](O)[C@H](O)[C@@H](O)CO [sorbitol], which “fluorescence intensity ratios of bipolar cells with sorbitol compared to ethacrynate” value (whole blood cells [2]; bipolar patients, 100 mM sorbitol in K+-free buffer, whole blood) is on record?
**A.** comparable
